Data from the NIST ThermoML archive (doi:10.1021/je049661s).
Numbers after ± are expanded uncertainties.

Assays:
[1] = 101.3 kPa, Liquid
[2] = xn = mol fraction of the nth substance listed; settings: 101.3 kPa, Liquid

C1CCCCC1 [cyclohexane]
[1]
Settings	mass density [kg/m3]	viscosity [mPa·s]
298.15 K	773.9 ± 1.6	0.8945 ± 0.015
303.15 K	768.6 ± 1.7	0.8284 ± 0.014
308.15 K	761.2 ± 1.7	0.7637 ± 0.013

C1CCCCC1 [cyclohexane] + O=C1CCCCC1
[2], x1 = 1
Settings	mass density [kg/m3]	viscosity [mPa·s]
298.15 K	773.9 ± 1.6	0.8945 ± 0.015
303.15 K	768.6 ± 1.7	0.8284 ± 0.014
308.15 K	761.2 ± 1.7	0.7637 ± 0.013

C1CCCCC1 [cyclohexane] + O=[N+]([O-])c1ccccc1
[2], x1 = 1
Settings	mass density [kg/m3]	viscosity [mPa·s]
298.15 K	773.9 ± 1.6	0.8945 ± 0.015
303.15 K	768.6 ± 1.7	0.8284 ± 0.014
308.15 K	761.2 ± 1.7	0.7637 ± 0.013

O=C1CCCCC1 [cyclohexanone]
[1]
Settings	mass density [kg/m3]	viscosity [mPa·s]
298.15 K	941 ± 2	2.021 ± 0.031
303.15 K	937.4 ± 2.1	1.806 ± 0.028
308.15 K	936.5 ± 2.2	1.585 ± 0.025

O=C1CCCCC1 [cyclohexanone] + C1CCCCC1
[2]
Settings	mass density, 298.15 K [kg/m3]	mass density, 303.15 K [kg/m3]	mass density, 308.15 K [kg/m3]	viscosity, 298.15 K [mPa·s]	viscosity, 303.15 K [mPa·s]	viscosity, 308.15 K [mPa·s]
x2 = 0	941 ± 2	937.4 ± 2.1	936.5 ± 2.2	2.021 ± 0.031	1.806 ± 0.028	1.585 ± 0.025
x2 = 0.0964	921.6 ± 2	917.9 ± 2.1	916.6 ± 2.1	1.852 ± 0.028	1.661 ± 0.026	1.485 ± 0.023
x2 = 0.2003	901.3 ± 1.9	897.6 ± 2	895.7 ± 2.1	1.682 ± 0.026	1.522 ± 0.024	1.384 ± 0.022
x2 = 0.2916	883.8 ± 1.9	880.2 ± 2	878.3 ± 2	1.541 ± 0.024	1.406 ± 0.022	1.296 ± 0.02
x2 = 0.3895	866 ± 1.8	862.8 ± 1.9	860.3 ± 2	1.403 ± 0.022	1.294 ± 0.02	1.203 ± 0.019
x2 = 0.4894	–	845.5 ± 1.9	842.6 ± 2	–	1.184 ± 0.019	1.112 ± 0.018
x2 = 0.4895	848.9 ± 1.8	–	–	1.275 ± 0.02	–	–
x2 = 0.5886	–	828.7 ± 1.8	825.6 ± 1.9	–	1.084 ± 0.017	1.025 ± 0.017
x2 = 0.5887	832.5 ± 1.8	–	–	1.163 ± 0.018	–	–
x2 = 0.6957	815.4 ± 1.7	811.6 ± 1.8	807.5 ± 1.9	1.063 ± 0.017	0.9925 ± 0.016	0.9408 ± 0.015
x2 = 0.7951	800.3 ± 1.7	796.3 ± 1.7	791.3 ± 1.8	0.9917 ± 0.016	0.9237 ± 0.015	0.8704 ± 0.015
x2 = 0.8968	–	781.8 ± 1.7	775.5 ± 1.8	–	0.8707 ± 0.015	0.8101 ± 0.014
x2 = 0.8969	786.5 ± 1.6	–	–	0.9386 ± 0.015	–	–

O=C1CCCCC1 [cyclohexanone] + O=[N+]([O-])c1ccccc1
[2], x1 = 1
Settings	mass density [kg/m3]	speed of sound [m/s]	viscosity [mPa·s]
298.15 K	941 ± 2	1847.7	2.021 ± 0.031
303.15 K	937.4 ± 2.1	–	1.806 ± 0.028
308.15 K	936.5 ± 2.2	–	1.585 ± 0.025

O=[N+]([O-])c1ccccc1 [nitrobenzene]
[1]
Settings	mass density [kg/m3]	speed of sound [m/s]	viscosity [mPa·s]
298.15 K	1198.5 ± 2.7	1648.4	1.686 ± 0.026
303.15 K	1193.6 ± 2.8	–	1.619 ± 0.025
308.15 K	1191.1 ± 2.9	–	1.554 ± 0.024

O=[N+]([O-])c1ccccc1 [nitrobenzene] + C1CCCCC1
[2]
Settings	mass density, 298.15 K [kg/m3]	mass density, 303.15 K [kg/m3]	mass density, 308.15 K [kg/m3]	viscosity, 298.15 K [mPa·s]	viscosity, 303.15 K [mPa·s]	viscosity, 308.15 K [mPa·s]
x2 = 0	1198.5 ± 2.7	1193.6 ± 2.8	1191.1 ± 2.9	1.686 ± 0.026	1.619 ± 0.025	1.554 ± 0.024
x2 = 0.0951	1160.4 ± 2.6	1158 ± 2.7	1156 ± 2.8	1.589 ± 0.025	1.527 ± 0.024	1.489 ± 0.023
x2 = 0.1908	1121.8 ± 2.5	1119.7 ± 2.6	1117.6 ± 2.7	1.482 ± 0.023	1.423 ± 0.022	1.385 ± 0.022
x2 = 0.2875	1080.5 ± 2.4	1078 ± 2.5	1075.5 ± 2.6	1.369 ± 0.021	1.313 ± 0.021	1.276 ± 0.02
x2 = 0.3866	1037.9 ± 2.3	1035 ± 2.4	1031.9 ± 2.5	1.26 ± 0.02	1.21 ± 0.019	1.168 ± 0.018
x2 = 0.4828	996 ± 2.2	993 ± 2.3	990 ± 2.3	1.167 ± 0.018	1.117 ± 0.018	1.074 ± 0.017
x2 = 0.5865	950.4 ± 2.1	947.6 ± 2.2	945 ± 2.2	1.083 ± 0.017	1.032 ± 0.017	0.9873 ± 0.016
x2 = 0.685	907.2 ± 2	905 ± 2	902.3 ± 2.1	1.022 ± 0.017	0.968 ± 0.016	0.9182 ± 0.015
x2 = 0.7901	861.6 ± 1.8	860 ± 1.9	856.6 ± 2	0.9712 ± 0.016	0.9142 ± 0.015	0.8626 ± 0.014
x2 = 0.896	816.9 ± 1.7	814.4 ± 1.8	809.1 ± 1.9	0.9338 ± 0.015	0.874 ± 0.015	0.8182 ± 0.014

O=[N+]([O-])c1ccccc1 [nitrobenzene] + O=C1CCCCC1
[2]
Settings	mass density, 298.15 K [kg/m3]	mass density, 303.15 K [kg/m3]	mass density, 308.15 K [kg/m3]	speed of sound, 298.15 K [m/s]	speed of sound, 303.15 K [m/s]	speed of sound, 308.15 K [m/s]	viscosity, 298.15 K [mPa·s]	viscosity, 303.15 K [mPa·s]	viscosity, 308.15 K [mPa·s]
x2 = 0	1198.5 ± 2.7	1193.6 ± 2.8	1191.1 ± 2.9	1648.4	–	1961	1.686 ± 0.026	1.619 ± 0.025	1.554 ± 0.024
x2 = 0.098	1169.6 ± 2.7	1167.6 ± 2.7	1166.8 ± 2.8	1696	1842.8	1991	1.752 ± 0.027	1.645 ± 0.025	1.556 ± 0.024
x2 = 0.1946	1141.8 ± 2.6	1140.8 ± 2.7	1140.3 ± 2.7	1733	1873	2019.9	1.785 ± 0.027	1.666 ± 0.026	1.557 ± 0.024
x2 = 0.2933	1114.5 ± 2.5	1113.4 ± 2.6	1112.9 ± 2.7	1764.1	1901.5	2041.5	1.802 ± 0.028	1.678 ± 0.026	1.559 ± 0.024
x2 = 0.3938	1087.5 ± 2.4	1085.6 ± 2.5	1084.9 ± 2.6	1790	1927.7	2058.6 ± 1000	1.812 ± 0.028	1.685 ± 0.026	1.561 ± 0.024
x2 = 0.495	1061.3 ± 2.4	1058.9 ± 2.4	1057.9 ± 2.5	1811.2	1945	2069.7	1.827 ± 0.028	1.695 ± 0.026	1.562 ± 0.024
x2 = 0.592	1036.9 ± 2.3	1034.5 ± 2.4	1033.4 ± 2.5	1825.7	1957	2076.4 ± 1000	1.848 ± 0.028	1.704 ± 0.026	1.565 ± 0.024
x2 = 0.6945	1011.6 ± 2.2	1009.6 ± 2.3	1008.6 ± 2.4	1839.8	1962	2080.5 ± 1000	1.879 ± 0.029	1.721 ± 0.026	1.567 ± 0.024
x2 = 0.7966	987.5 ± 2.2	985.7 ± 2.3	985 ± 2.3	1848.3	1963	2080	1.921 ± 0.029	1.749 ± 0.027	1.571 ± 0.024
x2 = 0.8973	963.4 ± 2.1	961.9 ± 2.2	961.4 ± 2.3	1853.5	1964.1	2081.5	1.97 ± 0.03	1.778 ± 0.027	1.577 ± 0.024
